The term EC50 denotes the concentration at which the effect is half-maximal. Low readings indicate higher potency in that assay, high ones lower potency in that assay. A word on the EC90: it is the concentration at which the effect reaches the 90% level. The low end stands for an effect from little substance, the high end for a need for much substance.

Structures can show the parent of a compound that is named as a salt.

Our source for the EC50 and EC90 values is patent EP2402357B1, “Analogs of 2',3'-dideoxy-3'-fluorothymidine 5'-monophosphate (FLTMP) for use in the treatment of infections caused by human HIV-1 strains” (priority 2010, dated 2012).

Assay in all cases: Antiviral activity in deCIPhR cellular system (replicative phenotyping, β-galactosidase indicator cell line)
Holding throughout (assay type): cell-based
Details in all cases: Human immunodeficiency virus 1

The test system of experiment [1] is HIV-1 mutant GQ (MDR). The text has this:
(§1) Fully infectious virus HIV-1 was produced from cloned proviral DNA reference coding either for wild-type HIV-1 or from drug-resistant virus following transfection of proviral DNA into recipient mammalian cells. Subsequent to viral protein expression and particle formation, culture supernatant was harvested and used to infect an indicator cell line. This latter cell line expresses all necessary receptors and co-receptors for HIV infection as well as the bacterial gene LacZ coding for β-galactosidase under the control of the HIV-1 long terminal repeat. In this system, amount of β-galactosidase is directly proportional to the extent of viral replication. Activity of β-galactosidase is assayed in presence of a colorless substrate which upon enzymatic conversion yields a yellow product absorbing at 405 nm. Next, variation in colorimetric readout in presence of test compounds was translated in percent viral inhibition following normalization according to absorbance values of positive (presence of anti-HIV drug) and negative (untreated) control wells included in each 96 well-plate. For determining effective concentration 50 % (EC50), test compounds were assayed across a range of concentrations. Percent inhibition data in function of drug concentration were processed by a statistical curve fitting software yielding a modeled curve from which EC50 was extrapolated.

Experiment [2] relates to HIV-1 mutant K103N.
From the text: as §1

For experiment [3], the system named is HIV-1 mutant K65R.
From the text: as §1

In experiment [4] the test system is HIV-1 mutant M184V.
From the text: as §1

Experiment [5] concerns HIV-1 mutant M4.
From the text: as §1

Experiment [6] has as its system HIV-1 wild type pNL4-3.
From the text: as §1

Turning to `Cc1cn([C@H]2C[C@H](F)[C@@H](COP(=O)(O)O)O2)c(=S)[nH]c1=O` [Example 2-SFLTMP, 1-(2-deoxy-3-fluoro-β-D-ribofuranosyl)-2-thiothymine 5'-monophosphate disodium salt], the EC50 in experiment [1] was 2850 nM; in experiment [2], 114 nM; in experiment [3], 504 nM; in experiment [4] it was 144 nM; in experiment [5], 392 nM; in experiment [6], 224 nM. Also, the concentration for an effect of 90% (EC90) in experiment [1] is 4530 nM; in experiment [2], 978 nM; in experiment [3], 4340 nM; in experiment [4], 3260 nM; in experiment [5] it was 3680 nM; in experiment [6] it was 2580 nM.
Take `Cc1cn([C@H]2C[C@H](F)[C@@H](COP(=O)(O)O)O2)c(=O)[nH]c1=S` [Example 4-SFLTMP, 1-(2-deoxy-3-fiuoro-β-D-ribofuranosyl)-4-thiothymine 5'-monophosphate disodium salt]: the EC50 in experiment [1] stood at 48 nM; in experiment [2], 11 nM; in experiment [3] it was 96 nM; in experiment [4], 43 nM; in experiment [5] it was 31 nM; in experiment [6], 24 nM. For the same compound, the EC90 in experiment [1] was determined as 1800 nM; in experiment [2] it was 50 nM; in experiment [3], 338 nM; in experiment [4], 425 nM; in experiment [5], 381 nM; in experiment [6], 166 nM.
Turning to `Cc1cn([C@H]2C[C@H](F)[C@@H](CO)O2)c(=O)[nH]c1=O` [FLT, 2',3'-Dideoxy-3'-fluorothymidine], the EC50 in experiment [1] came to 131 nM; in experiment [2], 18 nM; in experiment [3], 32 nM; in experiment [4], 27 nM; in experiment [5], 16 nM; in experiment [6], 21 nM. Moreover, the EC90 in experiment [1] was 1300 nM; in experiment [2], 71 nM; in experiment [3], 96 nM; in experiment [4], 119 nM; in experiment [5], 118 nM; in experiment [6] it was 210 nM.
